Entries after “also recorded” stand apart in the source; their conditions may differ.
Columns and labels:
[1] = tested on: α-Glucosidase (E.C.3.2.1.20); assay: α-Glucosidase enzyme inhibition assay; type: biochemical; conditions: for Active (activity against alpha-glucosidase enzyme): Table 1; for IC50: pH 6.9, 37° C., 0.7 mM PNP-G substrate, NA = inactive compounds
Protocol: α-Glucosidase Enzyme Inhibition Assay
α-Glucosidase (E.C.3.2.1.20) enzyme inhibition assay has been performed according to the slightly modified method of Matsui et al. α-Glucosidase (E.C.3.2.1.20) from Saccharomyces sp. was purchased from Wako Pure Chemical Industries Ltd. (Wako 076-02841). The inhibition has been measured spectrophotometrically at pH 6.9 and at 37° C. using 0.7 mM p-nitrophenyl α-D glucopyranoside (PNP-G) as a substrate and 250 m units/mL enzyme in 50 mM sodium phosphate buffer containing 100 mM NaCl. […] The increment in absorption at 400 nm due to the hydrolysis of PNP-G by α-glucosidase was monitored continuously with the spectrophotometer (Molecular Devices, USA). The concentrations of the test compounds, which inhibited the hydrolysis of PNP-G by α-glucosidase by 50% (IC50), were determined by monitoring the effect of increasing the concentration of these compounds on the inhibition values. The IC50 values were then calculated using EZ-Fit enzyme kinetics program (Perrella Scientific Inc., Amherst, Mass., U.S.A.).

enzyme tyrosinas = target: T1, enzyme tyrosinas (Homo sapiens, UniProt P14679); assay: inhibitory activity against enzyme tyrosinas; type: biochemical
T1 sequence (P14679 19-529): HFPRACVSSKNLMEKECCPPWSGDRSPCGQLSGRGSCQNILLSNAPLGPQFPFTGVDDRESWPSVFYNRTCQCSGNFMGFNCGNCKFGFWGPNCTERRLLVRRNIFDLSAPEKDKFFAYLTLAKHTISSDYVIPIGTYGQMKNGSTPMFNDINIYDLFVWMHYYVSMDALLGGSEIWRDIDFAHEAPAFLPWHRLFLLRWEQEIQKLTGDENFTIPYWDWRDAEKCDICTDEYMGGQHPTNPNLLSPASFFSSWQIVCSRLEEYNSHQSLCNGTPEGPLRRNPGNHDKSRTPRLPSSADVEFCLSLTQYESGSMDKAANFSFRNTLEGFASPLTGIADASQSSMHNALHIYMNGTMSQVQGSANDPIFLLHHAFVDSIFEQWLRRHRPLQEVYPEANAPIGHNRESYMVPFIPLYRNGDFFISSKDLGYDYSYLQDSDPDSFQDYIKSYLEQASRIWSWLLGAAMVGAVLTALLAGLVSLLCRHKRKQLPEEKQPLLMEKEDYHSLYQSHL

In the case of `C#C[C@]1(O)CC[C@H]2[C@@H]3[C@H](C)CC4=C(CCC(=O)C4)[C@H]3CC[C@@]21C` [Compound 1, Tibolone], the “Active (activity against alpha-glucosidase enzyme)” value (“Active” below) [1] is reported as “No”.
In the case of `C#C[C@]1(O)CC[C@H]2[C@@H]3[C@H](C)CC4=C(CC[C@H](O)C4)[C@H]3CC[C@@]21C` [Compound 2, 3β-hydroxytibolone], the “Active” value [1] is reported as “No”.
For `C#C[C@]1(O)CC[C@H]2[C@@H]3[C@H](C)CC4=C(CC[C@@H](O)C4)[C@H]3CC[C@@]21C` [Compound 3, 3α-hydroxytibolone], the “Active” value [1] was “No”.
With `C#CC1(O)CCC2C3C(C)CC4=CC(=O)C=CC4C3CCC21C` (stereo not drawn) [Compound 7, 7α-methyl-17α-ethynl-17β-hydroxy-19-norandrost-1,4-dien-3-one] the “inhibitory activity against α-Glucosidase enzyme (in words)” value [1] was “significant activity”, the “Active” value [1] was “Yes” and the IC50 [1] was 227 ± 0.02 µM.
For `C#CC1(O)CCC2C3C(C)CC4=CC(=O)CCC4(O)C3CCC21C` (stereo not drawn) [Compound 8, 7α-methyl-17α-ethynl-10β,17β-dihydroxy-19-norandrost-4-en-3-one], the “inhibitory activity against α-Glucosidase enzyme (in words)” value [1] was “pronounced inhibitory activities”, the “Active” value [1] was “No” and the IC50 [1] was 877 ± 0.03 µM.
With `C#CC1(O)CC(O)C2C3C(C)CC4=C(CCC(=O)C4)C3C(O)CC21C` (stereo not drawn) [Compound 9, 7α-methyl-17α-ethynl-11α,15β,17β-trihydroxy-19-norandrost-5(10)-en-3-one] the “inhibitory activity against enzyme tyrosinas (in words)” value (enzyme tyrosinas) was “pronounced inhibitory activity” and the “Active” value [1] was “No”.
In the case of `C#CC1(O)CC(O)C2C3C(C)C=C4CC(=O)CCC4C3C(O)CC21C` (stereo not drawn) [Compound 10, 7α-methyl-17α-ethynl-11α,15β,17β-trihydroxy-19-norandrost-5-en-3-one], the “inhibitory activity against enzyme tyrosinas (in words)” value (enzyme tyrosinas) is reported as “pronounced inhibitory activity” and the “Active” value [1] is reported as “No”.
With `C#CC1(O)CCC2C3C(C)C=C4CC(=O)CCC4C3CCC21C` (stereo not drawn) [Compound 11, 7α-methyl-17α-ethynl-17β-hydroxy-19-norandrost-5-en-3-one] the “Active” value [1] was “No”.
In the case of `C#CC1(O)CCC2C3C(C)C(O)C4=CC(=O)CCC4C3CCC21C` (stereo not drawn) [Compound 12, 6β-Hydroxy-Δ^4-tibolone], the melting point is reported as 189 to 193 °C, the “inhibitory activity against α-Glucosidase enzyme (in words)” value [1] is reported as “pronounced inhibitory activities; also recorded: pronounced inhibitory activity” and the “Active” value [1] is reported as “Yes”. For the same compound, the IC50 [1] was 653 ± 0.02 µM.
In the case of `C#CC1(O)CCC2C3C(C)C(O)C4=CC(=O)CCC4C3CCC21C` (stereo not drawn) [Compound 13, 6α-Hydroxy-Δ^4-tibolone], the melting point is reported as 187 to 190 °C, the “inhibitory activity against α-Glucosidase enzyme (in words)” value [1] is reported as “pronounced inhibitory activities; also recorded: pronounced inhibitory activity” and the “Active” value [1] is reported as “Yes”. The IC50 [1] was less than 70 µM.
In the case of `C#CC1(O)CC(O)C2C3C(C)CC4=CC(=O)CCC4C3CCC21C` (stereo not drawn) [Compound 14, 15α-Hydroxy-Δ^4-tibolone], the “Active” value [1] is reported as “Yes” and the IC50 [1] is reported as less than 70 µM.
With `C#CC1(O)CCC2C3C(C)C(O)C4=CC(=O)C=CC4C3CCC21C` (stereo not drawn) [Compound 15, 7α-methyl-17α-ethynl-6α,17β-dihydroxy-19-norandrost-1,4-dien-3-one] the “inhibitory activity against α-Glucosidase enzyme (in words)” value [1] was “significant activity; also recorded: pronounced inhibitory activity”, the “Active” value [1] was “Yes” and the IC50 [1] was 340 ± 0.02 µM.
In the case of `C#C[C@]1(O)CC[C@H]2[C@@H]3[C@H](C)[C@@H](OC)C4=CC(=O)CC[C@@H]4[C@H]3CC[C@@]21C` [Compound 16, 7α-methyl-17α-ethynl-6β-methoxy-17β-hydroxy-19-norandrost-4-en-3-one], the “Active” value [1] is reported as “No”.

— patent US8148556B2, “Method of producing tibolone metabolites by fermentation with Rhizopus stolonifer” (priority 2007, dated 2012)
